Values quoted from earlier work in patent US7371422B2, “Cereal grain kernels fortified with iron and calcium” (The Procter & Gamble Company, priority 2003, dated 2008).

Conditions: in adult college students (Bovell-Benjamin et al. 1999); relative to ferrous sulfate

NCC(=O)[O-].NCC(=O)[O-].[Fe+2] [Ferrous bis-glycinate, ferrous bis-glycinate]
absorbed ... times better than ferrous sulfate: 4.7 times
